Key:
[1] = chemical and physical stability of the crystalline form (statement only, no method); format: physicochemical; conditions: qualitative statement, no conditions given
[2] = aqueous solubility of the crystalline form (statement only, no method); format: physicochemical; conditions: qualitative statement, no conditions given

CC(=O)NC(C)(C)[C@@H]1CC2(CCN(C(=O)[C@@H]3CN(C(C)(C)C)C[C@H]3c3ccc(F)cc3F)CC2)c2cc(Cl)c(C)cc21.Cl [N-[1-((3R)-1′-1′-{[(3S,4R)-1-tert-butyl-4-(2,4-difluorophenyl)pyrrolidine-3-yl]carbonyl}-6-chloro-5-methyl-2,3-dihydrospiro[indene-1,4′-piperidine]-3-yl)-1-methylethyl]acetamide]
chemical and physical stability [1]: good
aqueous solubility [2]: good

— patent publication US20090131465A1, “Synthesis and crystalline forms of melanocortin-4 receptor agonist” (priority 2007, published 2009)
